Measurements: ChEMBL document CHEMBL1147199, “Exploration of the correlation between the structure, hemolytic activity, and cytotoxicity of steroid saponins” (Bioorg Med Chem, 2007)

Test: Cytotoxicity against human erythrocytes assessed as hemolytic activity after 60 mins
Format: cell-based, Erythrocyte
Settings: read-out: HD50

Row | Compound | HC50 at 1 h
1 | C[C@@H]1CC[C@@]2(OC1)O[C@H]1C[C@H]3[C@@H]4CC=C5C[C@@H](O[C@@H]6O[C@H](CO)[C@@H](O[C@H]7O[C@H](C)[C@@H](OCCNC(=O)COc8ccccc8)[C@H](O)[C@@H]7O)[C@H](O)[C@H]6O[C@H]6O[C@H](C)[C@@H](O)[C@H](O)[C@@H]6O)CC[C@]5(C)[C@H]4CC[C@]3(C)[C@H]1[C@@H]2C | 7.6 µM
2 | C[C@@H]1CC[C@@]2(OC1)O[C@H]1C[C@H]3[C@@H]4CC=C5C[C@@H](O[C@@H]6O[C@H](CO)[C@@H](O[C@H]7O[C@H](C)[C@@H](OCCNC(=O)COc8ccc(Cl)cc8)[C@H](O)[C@@H]7O)[C@H](O)[C@H]6O[C@H]6O[C@H](C)[C@@H](O)[C@H](O)[C@@H]6O)CC[C@]5(C)[C@H]4CC[C@]3(C)[C@H]1[C@@H]2C | 2.9 µM
3 | C[C@@H]1CC[C@@]2(OC1)O[C@H]1C[C@H]3[C@@H]4CC=C5C[C@@H](O[C@@H]6O[C@H](CNC(=O)/C=C/c7ccccc7)[C@@H](O[C@H]7O[C@H](C)[C@@H](O)[C@H](O)[C@@H]7O)[C@H](O)[C@H]6O[C@H]6O[C@H](C)[C@@H](O)[C@H](O)[C@@H]6O)CC[C@]5(C)[C@H]4CC[C@]3(C)[C@H]1[C@@H]2C | 11.8 µM
4 | C[C@@H]1CC[C@@]2(OC1)O[C@H]1C[C@H]3[C@@H]4CC=C5C[C@@H](O[C@@H]6O[C@H](CNC(=O)COc7ccccc7)[C@@H](O[C@H]7O[C@H](C)[C@@H](O)[C@H](O)[C@@H]7O)[C@H](O)[C@H]6O[C@H]6O[C@H](C)[C@@H](O)[C@H](O)[C@@H]6O)CC[C@]5(C)[C@H]4CC[C@]3(C)[C@H]1[C@@H]2C | 9.4 µM
5 | C=CCCCCCCCCC(=O)NCCO[C@H]1[C@H](O)[C@H](O)[C@@H](O[C@H]2[C@H](O)[C@@H](O[C@H]3O[C@H](C)[C@@H](O)[C@H](O)[C@@H]3O)[C@H](O[C@H]3CC[C@@]4(C)C(=CC[C@H]5[C@@H]6C[C@@H]7O[C@]8(CC[C@@H](C)CO8)[C@@H](C)[C@@H]7[C@@]6(C)CC[C@@H]54)C3)O[C@@H]2CO)O[C@@H]1C | 3.8 µM
6 | CC(=O)NCCO[C@H]1[C@H](O)[C@H](O)[C@@H](O[C@H]2[C@H](O)[C@@H](O[C@H]3O[C@H](C)[C@@H](O)[C@H](O)[C@@H]3O)[C@H](O[C@H]3CC[C@@]4(C)C(=CC[C@H]5[C@@H]6C[C@@H]7O[C@]8(CC[C@@H](C)CO8)[C@@H](C)[C@@H]7[C@@]6(C)CC[C@@H]54)C3)O[C@@H]2CO)O[C@@H]1C | 9.2 µM
7 | COc1ccc(C(=O)NCCO[C@H]2[C@H](O)[C@H](O)[C@@H](O[C@H]3[C@H](O)[C@@H](O[C@H]4O[C@H](C)[C@@H](O)[C@H](O)[C@@H]4O)[C@H](O[C@H]4CC[C@@]5(C)C(=CC[C@H]6[C@@H]7C[C@@H]8O[C@]9(CC[C@@H](C)CO9)[C@@H](C)[C@@H]8[C@@]7(C)CC[C@@H]65)C4)O[C@@H]3CO)O[C@@H]2C)cc1 | 4.5 µM
8 | C[C@@H]1CC[C@@]2(OC1)O[C@H]1C[C@H]3[C@@H]4CC=C5C[C@@H](O[C@@H]6O[C@H](CO)[C@@H](O[C@H]7O[C@H](C)[C@@H](OCCNC(=O)OCC8c9ccccc9-c9ccccc98)[C@H](O)[C@@H]7O)[C@H](O)[C@H]6O[C@H]6O[C@H](C)[C@@H](O)[C@H](O)[C@@H]6O)CC[C@]5(C)[C@H]4CC[C@]3(C)[C@H]1[C@@H]2C | 3 µM
9 | C[C@@H]1CC[C@@]2(OC1)O[C@H]1C[C@H]3[C@@H]4CC=C5C[C@@H](O[C@@H]6O[C@H](CNC(=O)COc7ccc(Cl)cc7)[C@@H](O[C@H]7O[C@H](C)[C@@H](O)[C@H](O)[C@@H]7O)[C@H](O)[C@H]6O[C@H]6O[C@H](C)[C@@H](O)[C@H](O)[C@@H]6O)CC[C@]5(C)[C@H]4CC[C@]3(C)[C@H]1[C@@H]2C | 9.4 µM
10 | C[C@@H]1CC[C@@]2(OC1)O[C@H]1C[C@H]3[C@@H]4CC=C5C[C@@H](O[C@@H]6O[C@H](CO)[C@@H](O[C@H]7O[C@H](C)[C@@H](OCCNC(=O)/C=C/c8ccccc8)[C@H](O)[C@@H]7O)[C@H](O)[C@H]6O[C@H]6O[C@H](C)[C@@H](O)[C@H](O)[C@@H]6O)CC[C@]5(C)[C@H]4CC[C@]3(C)[C@H]1[C@@H]2C | 1.5 µM
11 | C[C@@H]1CC[C@@]2(OC1)O[C@H]1C[C@H]3[C@@H]4CC=C5C[C@@H](O[C@@H]6O[C@H](CNS(=O)(=O)c7cccc8c(N(C)C)cccc78)[C@@H](O[C@H]7O[C@H](C)[C@@H](O)[C@H](O)[C@@H]7O)[C@H](O)[C@H]6O[C@H]6O[C@H](C)[C@@H](O)[C@H](O)[C@@H]6O)CC[C@]5(C)[C@H]4CC[C@]3(C)[C@H]1[C@@H]2C | 6.9 µM
12 | C/C=C/C=C/C(=O)NCCO[C@H]1[C@H](O)[C@H](O)[C@@H](O[C@H]2[C@H](O)[C@@H](O[C@H]3O[C@H](C)[C@@H](O)[C@H](O)[C@@H]3O)[C@H](O[C@H]3CC[C@@]4(C)C(=CC[C@H]5[C@@H]6C[C@@H]7O[C@]8(CC[C@@H](C)CO8)[C@@H](C)[C@@H]7[C@@]6(C)CC[C@@H]54)C3)O[C@@H]2CO)O[C@@H]1C | 1.6 µM
13 | C[C@@H]1CC[C@@]2(OC1)O[C@H]1C[C@H]3[C@@H]4CC=C5C[C@@H](O[C@@H]6O[C@H](CO)[C@@H](O[C@H]7O[C@H](C)[C@@H](OCCNS(=O)(=O)c8cccc9c(N(C)C)cccc89)[C@H](O)[C@@H]7O)[C@H](O)[C@H]6O[C@H]6O[C@H](C)[C@@H](O)[C@H](O)[C@@H]6O)CC[C@]5(C)[C@H]4CC[C@]3(C)[C@H]1[C@@H]2C | 1.3 µM
14 | C[C@@H]1CC[C@@]2(OC1)O[C@H]1C[C@H]3[C@@H]4CC=C5C[C@@H](O[C@@H]6O[C@H](CO)[C@@H](O[C@H]7O[C@H](C)[C@@H](OCCNC(=O)C(F)(F)F)[C@H](O)[C@@H]7O)[C@H](O)[C@H]6O[C@H]6O[C@H](C)[C@@H](O)[C@H](O)[C@@H]6O)CC[C@]5(C)[C@H]4CC[C@]3(C)[C@H]1[C@@H]2C | 5.7 µM
15 | C[C@@H]1CC[C@@]2(OC1)O[C@H]1C[C@H]3[C@@H]4CC=C5C[C@@H](O[C@@H]6O[C@H](CO)[C@@H](O[C@H]7O[C@H](C)[C@@H](OCCNC(=O)CCCCl)[C@H](O)[C@@H]7O)[C@H](O)[C@H]6O[C@H]6O[C@H](C)[C@@H](O)[C@H](O)[C@@H]6O)CC[C@]5(C)[C@H]4CC[C@]3(C)[C@H]1[C@@H]2C | 3.8 µM
16 | CCCCCCCCCCCCCCCCCC(=O)NCCO[C@H]1[C@H](O)[C@H](O)[C@@H](O[C@H]2[C@H](O)[C@@H](O[C@H]3O[C@H](C)[C@@H](O)[C@H](O)[C@@H]3O)[C@H](O[C@H]3CC[C@@]4(C)C(=CC[C@H]5[C@@H]6C[C@@H]7O[C@]8(CC[C@@H](C)CO8)[C@@H](C)[C@@H]7[C@@]6(C)CC[C@@H]54)C3)O[C@@H]2CO)O[C@@H]1C | > 50 µg/mL
17 | C[C@@H]1CC[C@@]2(OC1)O[C@H]1C[C@H]3[C@@H]4CC=C5C[C@@H](O[C@@H]6O[C@H](CNC(=O)OCC7c8ccccc8-c8ccccc87)[C@@H](O[C@H]7O[C@H](C)[C@@H](O)[C@H](O)[C@@H]7O)[C@H](O)[C@H]6O[C@H]6O[C@H](C)[C@@H](O)[C@H](O)[C@@H]6O)CC[C@]5(C)[C@H]4CC[C@]3(C)[C@H]1[C@@H]2C | 9 µM
18 | CCCCCCCCCCCCCC(=O)NCCO[C@H]1[C@H](O)[C@H](O)[C@@H](O[C@H]2[C@H](O)[C@@H](O[C@H]3O[C@H](C)[C@@H](O)[C@H](O)[C@@H]3O)[C@H](O[C@H]3CC[C@@]4(C)C(=CC[C@H]5[C@@H]6C[C@@H]7O[C@]8(CC[C@@H](C)CO8)[C@@H](C)[C@@H]7[C@@]6(C)CC[C@@H]54)C3)O[C@@H]2CO)O[C@@H]1C | > 50 µg/mL
19 | C[C@@H]1CC[C@@]2(OC1)O[C@H]1C[C@H]3[C@@H]4CC=C5C[C@@H](O[C@@H]6O[C@H](CO)[C@@H](O[C@H]7O[C@H](C)[C@@H](OCCNC(=O)c8ccccc8)[C@H](O)[C@@H]7O)[C@H](O)[C@H]6O[C@H]6O[C@H](C)[C@@H](O)[C@H](O)[C@@H]6O)CC[C@]5(C)[C@H]4CC[C@]3(C)[C@H]1[C@@H]2C | 49.3 µM
20 | C[C@@H]1CC[C@@]2(OC1)O[C@H]1C[C@H]3[C@@H]4CC=C5C[C@@H](O[C@@H]6O[C@H](CO)[C@@H](O[C@H]7O[C@H](C)[C@@H](OCCNC(=O)c8ccccc8I)[C@H](O)[C@@H]7O)[C@H](O)[C@H]6O[C@H]6O[C@H](C)[C@@H](O)[C@H](O)[C@@H]6O)CC[C@]5(C)[C@H]4CC[C@]3(C)[C@H]1[C@@H]2C | 1.7 µM
21 | C[C@@H]1CC[C@@]2(OC1)O[C@H]1C[C@H]3[C@@H]4CC=C5C[C@@H](O[C@@H]6O[C@H](CO)[C@@H](O[C@H]7O[C@H](C)[C@@H](OCCNC(=O)c8ccc([N+](=O)[O-])cc8)[C@H](O)[C@@H]7O)[C@H](O)[C@H]6O[C@H]6O[C@H](C)[C@@H](O)[C@H](O)[C@@H]6O)CC[C@]5(C)[C@H]4CC[C@]3(C)[C@H]1[C@@H]2C | 4.9 µM
22 | C[C@@H]1CC[C@@]2(OC1)O[C@H]1C[C@H]3[C@@H]4CC=C5C[C@@H](O[C@@H]6O[C@H](CO)[C@@H](O[C@H]7O[C@H](C)[C@@H](OCCN)[C@H](O)[C@@H]7O)[C@H](O)[C@H]6O[C@H]6O[C@H](C)[C@@H](O)[C@H](O)[C@@H]6O)CC[C@]5(C)[C@H]4CC[C@]3(C)[C@H]1[C@@H]2C | 2.6 µM
23 | C[C@@H]1CC[C@@]2(OC1)O[C@H]1C[C@H]3[C@@H]4CC=C5C[C@@H](O[C@@H]6O[C@H](CO)[C@@H](O[C@H]7O[C@H](C)[C@@H](OCCN=[N+]=[N-])[C@H](O)[C@@H]7O)[C@H](O)[C@H]6O[C@H]6O[C@H](C)[C@@H](O)[C@H](O)[C@@H]6O)CC[C@]5(C)[C@H]4CC[C@]3(C)[C@H]1[C@@H]2C | 9.7 µM
